Source: PMC11606603, “The membrane domains of mammalian adenylyl cyclases are lipid receptors” (eLife, 2024)
Several values for one entry are separate records, joined by “and”; a condition that tells them apart may be missing. Identical values can stand only once.

What was measured:
Format in all cases: biochemical
mAC9 = biological target: T1, mAC9 (Homo sapiens, UniProt O60503); test: AC assay, Gsα-stimulated mAC9 in membranes from transfected HEK293 cells; conditions: for mAC9 activity (%);(100% = Gsα stimulation) stimulated by 300nM Gsα: single experiments
T1 construct: Human mAC genes were from GenScript and fitted with a C-terminal FLAG-tag; FLAG (C); made in house; host or cells: HEK293, permanently transfected; membrane preparation
Method: (§1) hAC sequences were from NCBI were: ADCY1: NM_021116.3; ADCY2: NM_020546.2; ADCY3: NM_004036.4; ADCY4: NM_001198568.2; ADCY5: NM_183357.2; ADCY6: NM_015270.4; ADCY7: NM_001114.4; ADCY8: NM_001115.2; ADCY9: NM_001116.3. Human mAC genes were from GenScript and fitted with a C-terminal FLAG-tag. […] The gene was synthesized by GenScript. HEK293 cells were maintained in Dulbeccos Modified Eagle Medium (DMEM) with 10% fetal bovine serum at 37°C and 5% CO2. Transfection with AC plasmids was with PolyJet (SignaGen, Frederick, MD, USA). Permanent cell lines were generated by selection for 7 days with 600 µg/ml G418 and maintained with 300 µg/ml For membrane preparation, cells were tyrpsinized, collected by centrifugation (3000 × g, 5 min) and lysed and homogenized in 20 mM HEPES, pH 7.5, 1 mM Ethylenediaminetetraacetic acid (EDTA), 2 mM MgCl2, 1 mM Dithiothreitol (DTT), one tablet of cOmplete, EDTA-free (per 50 ml) and 250 mM sucrose by 20 strokes in a potter homogenizer on ice. Debris was removed (5 min at 1000 × g, 0°C), membranes were collected at 100,000 × g, 60 min at 0°C, suspended and stored at −80°C in 20 mM MOPS, pH 7.5, 0.5 mM EDTA, 2 mM MgCl2. […] Three cerebral cortices were dissected and homogenized in 4.5 ml cold 48 mM Tris–HCl, pH 7.4, 12 mM MgC1_2, and 0.1 mM Ethylene glycol-bis(β-aminoethyl ether)-N,N,N′,N′-tetraacetic acid (EGTA) with a Polytron hand disperser (Kinematica AG, Switzerland). […] The pellet was washed once with 5 ml 1 mM KHCO3. The final suspension in 2 ml 1 mM KHCO3 was stored in aliquots at −80°C.
(§2) In a volume of 10 μl, AC activities were measured using 1 mM ATP, 2 mM MgCl2, 3 mM creatine phosphate, 60 μg/ml creatine kinase, and 50 mM MOPS pH 7.5. The cAMP assay kit from Cisbio (Codolet, France) was used for detection according to the supplier’s instructions. For each assay, a cAMP standard curve was established. EC50 and IC50 values were calculated by GraphPad Prism version 8.4.3 for Windows, GraphPad Software, San Diego, CA, USA, https://www.graphpad.com .

mAC8 = biological target: T2, mAC8 (Homo sapiens, UniProt P40145); test: AC assay, Gsα-stimulated mAC8 in membranes from transfected HEK293 cells; conditions: 20µM fatty acid concentration
T2 construct: Human mAC genes were from GenScript and fitted with a C-terminal FLAG-tag; FLAG (C); made in house; host or cells: HEK293, permanently transfected; membrane preparation
Method: as §1, §2

mAC4 = biological target: T3, mAC4 (Homo sapiens, UniProt Q8NFM4); test: AC assay, Gsα-stimulated mAC4 in membranes from transfected HEK293 cells; conditions: 20 µM fatty acid; 300 nM Gsα; single experiments
T3 construct: Human mAC genes were from GenScript and fitted with a C-terminal FLAG-tag; FLAG (C); made in house; host or cells: HEK293, permanently transfected; membrane preparation
T3 sequence (Q8NFM4 1-1077): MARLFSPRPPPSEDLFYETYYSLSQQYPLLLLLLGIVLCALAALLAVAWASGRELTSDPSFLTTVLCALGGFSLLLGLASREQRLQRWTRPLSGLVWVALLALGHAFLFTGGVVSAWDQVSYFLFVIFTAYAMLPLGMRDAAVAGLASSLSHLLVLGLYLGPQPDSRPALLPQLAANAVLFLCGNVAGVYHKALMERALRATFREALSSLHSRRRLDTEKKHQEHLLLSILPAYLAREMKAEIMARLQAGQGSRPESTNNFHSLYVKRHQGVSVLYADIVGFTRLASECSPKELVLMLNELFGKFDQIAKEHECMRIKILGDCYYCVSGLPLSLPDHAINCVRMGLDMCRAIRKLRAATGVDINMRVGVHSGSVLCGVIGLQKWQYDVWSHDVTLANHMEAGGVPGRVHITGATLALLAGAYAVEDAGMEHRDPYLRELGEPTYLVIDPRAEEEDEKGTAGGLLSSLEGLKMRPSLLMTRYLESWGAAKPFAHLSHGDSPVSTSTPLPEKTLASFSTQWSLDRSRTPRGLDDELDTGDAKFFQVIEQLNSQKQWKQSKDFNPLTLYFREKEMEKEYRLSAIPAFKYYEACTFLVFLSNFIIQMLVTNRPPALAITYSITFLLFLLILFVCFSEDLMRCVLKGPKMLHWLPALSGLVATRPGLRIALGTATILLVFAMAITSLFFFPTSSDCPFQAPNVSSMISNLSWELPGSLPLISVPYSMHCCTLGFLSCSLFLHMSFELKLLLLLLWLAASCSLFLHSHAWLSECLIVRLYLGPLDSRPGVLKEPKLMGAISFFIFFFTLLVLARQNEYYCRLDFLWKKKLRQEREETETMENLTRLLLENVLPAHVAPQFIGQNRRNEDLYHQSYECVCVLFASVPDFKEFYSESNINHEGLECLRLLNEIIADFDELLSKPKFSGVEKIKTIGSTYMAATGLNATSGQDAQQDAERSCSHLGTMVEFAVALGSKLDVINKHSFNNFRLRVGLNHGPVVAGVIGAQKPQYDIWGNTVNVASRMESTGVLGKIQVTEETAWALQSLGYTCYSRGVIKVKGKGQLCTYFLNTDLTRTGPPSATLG
Method: as §1, §2

mAC2 = biological target: T4, mAC2 (Homo sapiens, UniProt Q08462); test: AC assay, Gsα-stimulated mAC2 in membranes from transfected HEK293 cells
T4 construct: Human mAC genes were from GenScript and fitted with a C-terminal FLAG-tag; FLAG (C); made in house; host or cells: HEK293, permanently transfected; membrane preparation
Method: as §1, §2

mAC3 = biological target: T5, mAC3 (Homo sapiens, UniProt O60266); test: AC assay, Gsα-stimulated mAC3 in membranes from transfected HEK293 cells
T5 construct: Human mAC genes were from GenScript and fitted with a C-terminal FLAG-tag; FLAG (C); made in house; host or cells: HEK293, permanently transfected; membrane preparation
Method: as §1, §2

mAC7 = biological target: T6, mAC7 (Homo sapiens, UniProt P51828); test: AC assay, Gsα-stimulated mAC7 in membranes from transfected HEK293 cells; conditions: Figure 5-figure supplement 2 left, 20 µM
T6 construct: Human mAC genes were from GenScript and fitted with a C-terminal FLAG-tag; FLAG (C); made in house; host or cells: HEK293, permanently transfected; membrane preparation
Method: as §1, §2

mAC1 = biological target: T7, mAC1 (Homo sapiens, UniProt Q08828); test: AC assay, Gsα-stimulated mAC1 in membranes from transfected HEK293 cells; conditions: 20 µM fatty acid; 300 nM Gsα; single experiments
T7 construct: Human mAC genes were from GenScript and fitted with a C-terminal FLAG-tag; FLAG (C); made in house; host or cells: HEK293, permanently transfected; membrane preparation
Method: as §1, §2

mAC6 = biological target: T8, mAC6 (Homo sapiens, UniProt O43306); test: AC assay, Gsα-stimulated mAC6 in membranes from transfected HEK293 cells; conditions: 20µM fatty acid concentration
T8 construct: Human mAC genes were from GenScript and fitted with a C-terminal FLAG-tag; FLAG (C); made in house; host or cells: HEK293, permanently transfected; membrane preparation
Method: as §1, §2

mAC5 = biological target: T9, mAC5 (Homo sapiens, UniProt O95622); test: AC assay, Gsα-stimulated mAC5 in membranes from transfected HEK293 cells; conditions: 20µM fatty acid concentration
T9 construct: Human mAC genes were from GenScript and fitted with a C-terminal FLAG-tag; FLAG (C); made in house; host or cells: HEK293, permanently transfected; membrane preparation
Method: as §1, §2

T1 sequence (O60503 whole entry): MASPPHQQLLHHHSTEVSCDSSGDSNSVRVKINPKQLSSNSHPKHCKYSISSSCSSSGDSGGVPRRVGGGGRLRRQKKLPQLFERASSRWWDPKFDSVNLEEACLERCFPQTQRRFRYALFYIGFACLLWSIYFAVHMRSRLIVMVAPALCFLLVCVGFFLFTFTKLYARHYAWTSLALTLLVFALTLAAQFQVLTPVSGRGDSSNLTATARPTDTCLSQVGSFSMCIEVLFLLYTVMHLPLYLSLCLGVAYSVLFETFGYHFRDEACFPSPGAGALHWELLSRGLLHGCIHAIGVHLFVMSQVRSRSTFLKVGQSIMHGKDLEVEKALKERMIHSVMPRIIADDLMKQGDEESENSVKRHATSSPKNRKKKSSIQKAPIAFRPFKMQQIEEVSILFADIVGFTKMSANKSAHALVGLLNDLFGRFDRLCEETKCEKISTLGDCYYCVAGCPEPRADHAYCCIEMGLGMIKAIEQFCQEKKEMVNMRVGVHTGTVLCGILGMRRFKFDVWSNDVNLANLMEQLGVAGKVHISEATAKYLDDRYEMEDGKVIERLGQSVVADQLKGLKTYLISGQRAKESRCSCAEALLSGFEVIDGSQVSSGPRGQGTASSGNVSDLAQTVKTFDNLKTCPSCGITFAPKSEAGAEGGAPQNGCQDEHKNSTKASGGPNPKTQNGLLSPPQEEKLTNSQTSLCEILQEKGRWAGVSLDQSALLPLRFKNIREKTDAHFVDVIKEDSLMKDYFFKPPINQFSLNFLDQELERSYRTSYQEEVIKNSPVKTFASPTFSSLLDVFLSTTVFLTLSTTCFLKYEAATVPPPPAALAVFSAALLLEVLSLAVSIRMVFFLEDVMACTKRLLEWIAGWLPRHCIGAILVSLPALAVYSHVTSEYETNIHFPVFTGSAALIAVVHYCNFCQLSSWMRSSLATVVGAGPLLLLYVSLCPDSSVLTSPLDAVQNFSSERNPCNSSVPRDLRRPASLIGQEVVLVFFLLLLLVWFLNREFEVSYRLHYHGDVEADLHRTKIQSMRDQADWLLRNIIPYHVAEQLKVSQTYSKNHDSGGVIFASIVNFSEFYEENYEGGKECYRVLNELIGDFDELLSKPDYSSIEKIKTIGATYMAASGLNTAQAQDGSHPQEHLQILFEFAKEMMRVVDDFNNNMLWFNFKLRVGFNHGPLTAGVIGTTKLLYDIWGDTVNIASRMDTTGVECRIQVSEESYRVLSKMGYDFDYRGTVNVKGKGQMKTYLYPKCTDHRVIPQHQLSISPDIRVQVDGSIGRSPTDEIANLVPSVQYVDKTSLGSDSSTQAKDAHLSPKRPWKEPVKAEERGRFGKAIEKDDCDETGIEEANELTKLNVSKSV
T1 sequence (P63092 2-394 Q227L partner): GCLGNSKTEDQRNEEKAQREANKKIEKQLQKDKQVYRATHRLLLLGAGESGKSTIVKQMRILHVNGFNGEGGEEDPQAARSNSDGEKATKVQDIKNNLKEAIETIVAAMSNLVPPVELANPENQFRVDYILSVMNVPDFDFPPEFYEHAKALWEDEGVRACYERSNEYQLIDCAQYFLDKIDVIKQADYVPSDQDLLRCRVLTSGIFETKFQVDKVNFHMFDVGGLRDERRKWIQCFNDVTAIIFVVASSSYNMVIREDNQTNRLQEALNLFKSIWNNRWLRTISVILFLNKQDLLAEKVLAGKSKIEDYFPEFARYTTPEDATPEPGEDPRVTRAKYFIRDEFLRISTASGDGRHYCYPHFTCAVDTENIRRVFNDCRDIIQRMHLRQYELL
T5 sequence (O60266 whole entry): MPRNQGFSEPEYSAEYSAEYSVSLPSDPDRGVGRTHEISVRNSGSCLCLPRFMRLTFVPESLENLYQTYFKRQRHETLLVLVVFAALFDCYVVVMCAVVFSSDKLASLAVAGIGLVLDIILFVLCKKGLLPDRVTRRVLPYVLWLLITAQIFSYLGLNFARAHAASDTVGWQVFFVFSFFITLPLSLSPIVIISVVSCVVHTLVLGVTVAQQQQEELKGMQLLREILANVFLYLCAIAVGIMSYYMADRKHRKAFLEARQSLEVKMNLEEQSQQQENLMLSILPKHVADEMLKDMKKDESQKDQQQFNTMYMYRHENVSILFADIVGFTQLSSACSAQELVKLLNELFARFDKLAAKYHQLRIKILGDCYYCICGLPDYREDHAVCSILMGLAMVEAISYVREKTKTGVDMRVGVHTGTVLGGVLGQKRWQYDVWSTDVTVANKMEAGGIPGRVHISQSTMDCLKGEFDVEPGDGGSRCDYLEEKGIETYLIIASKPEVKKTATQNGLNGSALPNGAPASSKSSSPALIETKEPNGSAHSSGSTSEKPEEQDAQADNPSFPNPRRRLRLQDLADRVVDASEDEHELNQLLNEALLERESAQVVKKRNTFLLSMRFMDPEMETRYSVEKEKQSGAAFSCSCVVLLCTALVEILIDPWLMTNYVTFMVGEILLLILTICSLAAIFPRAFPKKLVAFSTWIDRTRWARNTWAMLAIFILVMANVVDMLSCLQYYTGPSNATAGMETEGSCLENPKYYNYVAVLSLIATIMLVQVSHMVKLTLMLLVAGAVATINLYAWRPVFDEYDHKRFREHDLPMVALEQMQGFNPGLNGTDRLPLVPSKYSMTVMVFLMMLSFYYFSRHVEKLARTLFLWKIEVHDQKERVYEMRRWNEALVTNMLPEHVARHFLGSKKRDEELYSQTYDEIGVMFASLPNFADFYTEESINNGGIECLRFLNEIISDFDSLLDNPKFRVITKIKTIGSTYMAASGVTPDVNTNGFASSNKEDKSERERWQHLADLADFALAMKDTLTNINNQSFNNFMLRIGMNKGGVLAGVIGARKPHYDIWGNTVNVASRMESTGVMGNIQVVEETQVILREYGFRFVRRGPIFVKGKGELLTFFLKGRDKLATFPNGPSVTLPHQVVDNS
T5 sequence (P63092 whole entry Q227L partner): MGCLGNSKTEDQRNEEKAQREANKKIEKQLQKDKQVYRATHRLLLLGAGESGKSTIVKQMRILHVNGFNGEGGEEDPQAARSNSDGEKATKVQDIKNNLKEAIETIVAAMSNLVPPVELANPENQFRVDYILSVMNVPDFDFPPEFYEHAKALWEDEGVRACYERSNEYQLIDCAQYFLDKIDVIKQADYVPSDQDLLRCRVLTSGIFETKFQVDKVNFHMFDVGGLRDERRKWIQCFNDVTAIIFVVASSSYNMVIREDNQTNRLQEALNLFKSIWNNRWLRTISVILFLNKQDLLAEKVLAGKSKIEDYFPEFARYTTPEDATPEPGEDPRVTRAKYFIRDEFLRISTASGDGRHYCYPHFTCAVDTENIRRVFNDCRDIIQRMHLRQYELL
T4 sequence (Q08462 whole entry): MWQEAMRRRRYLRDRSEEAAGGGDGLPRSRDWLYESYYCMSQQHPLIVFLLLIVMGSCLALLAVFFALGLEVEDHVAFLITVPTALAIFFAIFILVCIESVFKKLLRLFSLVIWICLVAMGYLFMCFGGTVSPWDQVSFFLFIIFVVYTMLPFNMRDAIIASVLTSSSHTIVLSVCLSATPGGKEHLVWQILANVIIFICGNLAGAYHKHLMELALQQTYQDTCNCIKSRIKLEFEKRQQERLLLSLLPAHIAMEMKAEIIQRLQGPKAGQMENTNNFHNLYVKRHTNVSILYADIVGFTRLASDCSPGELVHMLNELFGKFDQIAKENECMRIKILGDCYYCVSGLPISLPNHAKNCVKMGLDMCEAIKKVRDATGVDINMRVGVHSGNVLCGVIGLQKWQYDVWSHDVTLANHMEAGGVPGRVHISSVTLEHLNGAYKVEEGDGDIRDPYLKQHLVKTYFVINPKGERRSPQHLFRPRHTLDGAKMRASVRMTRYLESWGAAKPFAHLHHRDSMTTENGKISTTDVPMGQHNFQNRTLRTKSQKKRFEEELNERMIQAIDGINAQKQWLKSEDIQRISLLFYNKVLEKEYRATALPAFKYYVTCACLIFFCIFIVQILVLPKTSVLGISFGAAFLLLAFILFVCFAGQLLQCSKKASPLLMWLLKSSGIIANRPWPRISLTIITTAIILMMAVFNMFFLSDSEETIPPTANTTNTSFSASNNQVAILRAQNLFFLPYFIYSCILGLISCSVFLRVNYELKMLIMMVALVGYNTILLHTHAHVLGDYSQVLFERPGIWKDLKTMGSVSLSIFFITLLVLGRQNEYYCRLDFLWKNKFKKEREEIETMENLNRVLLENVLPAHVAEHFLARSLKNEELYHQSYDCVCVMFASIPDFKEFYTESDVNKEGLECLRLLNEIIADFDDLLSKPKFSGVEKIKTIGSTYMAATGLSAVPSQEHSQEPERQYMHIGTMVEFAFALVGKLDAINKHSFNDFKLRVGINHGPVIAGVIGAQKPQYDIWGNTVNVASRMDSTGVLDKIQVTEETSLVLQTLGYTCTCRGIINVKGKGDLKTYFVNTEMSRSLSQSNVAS
T4 sequence (P63092 2-394 Q227L partner): as the sequence (P63092 2-394 Q227L partner) above

## CCCCCC/C=C\CCCCCCCCCC(=O)O [cis-Vaccenic acid, cis-Vaccenic ((11E)-octadecenoic) acid]
mAC9; 6 µM fatty acid
  mAC9 activity (%);(100% = Gsα stimulation) stimulated by 300nM Gsα: 116% and 153% and 119% and 113%
mAC9; 8 µM fatty acid
  mAC9 activity (%);(100% = Gsα stimulation) stimulated by 300nM Gsα: 174%
mAC9; enhancement of 300 nM Gsα-stimulated activity, read-out: EC50 for mAC9
  EC50: 8.5 µM
mAC8
  mAC8 activity [%] (100% = 300nM Gsα stimulation): 107% and 123%
mAC4
  mAC4 activity [%] (100% = 300nM Gsα stimulation); 20µM fatty acid concentration: 78% and 66% and 107%
mAC2; 20 µM, in words
  Effect of lipid on 300 nM Gsα-stimulated mAC2: doubled
mAC2; Figure 5-figure supplement 1 left, 20 µM
  mAC2 activity [%] (100% = 300nM Gsα stimulation); 20µM fatty acid concentration: 243% and 149% and 146% and 170% and 233%
mAC2; cis-Vaccenic acid 1 µM
  mAC2 activity (%);(100% = Gsα stimulation) stimulated by 300nM Gsα: 120% and 97% and 119% and 112% and 115%
mAC2; cis-Vaccenic acid 3 µM
  mAC2 activity (%);(100% = Gsα stimulation) stimulated by 300nM Gsα: 117% and 107% and 130% and 128% and 95%
mAC2; cis-Vaccenic acid 6 µM
  mAC2 activity (%);(100% = Gsα stimulation) stimulated by 300nM Gsα: 93% and 112% and 130% and 120% and 121%
mAC2; cis-Vaccenic acid 10 µM
  mAC2 activity (%);(100% = Gsα stimulation) stimulated by 300nM Gsα: 141% and 119% and 166% and 123% and 169%
mAC2; cis-Vaccenic acid 20 µM
  mAC2 activity (%);(100% = Gsα stimulation) stimulated by 300nM Gsα: 146% and 170% and 233% and 243% and 149%
mAC2; enhancement of 300 nM Gsα-stimulated activity
  EC50: 10.6 µM
mAC2; read-out: mAC2 activity (%);(100% = Gsα stimulation) stimulated by 300nM Gsα, cis-Vaccenic acid 0.3 µM
  activity at 0.3 µM: 100%
mAC3; 20 µM, in words
  Effect of lipid on 300 nM Gsα-stimulated mAC3: efficient enhancers
mAC3; fatty acid 20 µM, individual experiments
  mAC3 activity [%] (100% = 300nM Gsα stimulation): 429% and 498% and 460% and 363% and 411%
mAC7
  mAC7 activity [%] (100% = 300nM Gsα stimulation); 20µM fatty acid concentration: 148% and 179%
mAC1
  mAC1 activity [%] (100% = 300nM Gsα stimulation); 20µM fatty acid concentration: 61% and 67% and 86%
mAC6
  mAC6 activity [%] (100% = 300nM Gsα stimulation): 91% and 114%
mAC5
  mAC5 activity [%] (100% = 300nM Gsα stimulation): 124% and 95%
